Earlier results, collected in patent US20170042143A1, “ANIONIC POLYVINYL ALCOHOL COPOLYMER AS PROTECTIVE COLLOID FOR PESTICIDAL POLYUREA MICROCAPSULES” (BASF SE, priority 2014, published 2017).

Settings: at 20° C.

Question: With `Cc1ccccc1CO[C@@H]1C[C@@]2(C(C)C)CC[C@]1(C)O2` (racemic) [Cinmethylin] as the compound, how does the solubility in water read?
Answer: Its solubility in water is “about 0.06 g/l”.
